Reference: ChEMBL document CHEMBL3102771, “Regioselective synthesis of 3-benzyl substituted pyrimidino chromen-2-ones and evaluation of anti-microbial and anti-biofilm activities” (2014)
≈ marks a conversion by molar mass, not a printed value. Calls of active or inactive are those of the source. No cut-off for these calls is given here.

Assays:
Assay type in all cases: functional
Pseudomonas aeruginosa [1] = assay: Antibiofilm activity against Pseudomonas aeruginosa MTCC 2453 after 24 hrs by crystal violet staining technique
Staphylococcus aureus [2] = assay: Antibiofilm activity against Staphylococcus aureus MLS-16 MTCC 2940 after 24 hrs by crystal violet staining technique
Staphylococcus aureus [3] = assay: Antibiofilm activity against Staphylococcus aureus MTCC 96 after 24 hrs by crystal violet staining technique
Pseudomonas aeruginosa [4] = assay: Antimicrobial activity against Pseudomonas aeruginosa MTCC 2453 assessed as growth inhibition after 24 hrs by well diffusion method; conditions: MTCC 2453, 24 h
Bacillus subtilis = assay: Antimicrobial activity against Bacillus subtilis MTCC 121 assessed as growth inhibition after 24 hrs by well diffusion method; conditions: MTCC 121, 24 h
Staphylococcus aureus [5] = assay: Antimicrobial activity against Staphylococcus aureus MLS-16 MTCC 2940 assessed as growth inhibition after 24 hrs by well diffusion method; conditions: MLS-16 MTCC 2940, 24 h
Staphylococcus aureus [6] = assay: Antimicrobial activity against Staphylococcus aureus MTCC 96 assessed as growth inhibition after 24 hrs by well diffusion method; conditions: MTCC 96, 24 h
Micrococcus luteus = assay: Antimicrobial activity against Micrococcus luteus MTCC 2470 assessed as growth inhibition after 24 hrs by well diffusion method; conditions: MTCC 2470, 24 h

Compound | MBEC (Pseudomonas aeruginosa [1]) | MBEC (Staphylococcus aureus [2]) | MBEC (Staphylococcus aureus [3]) | MIC (Pseudomonas aeruginosa [4]) [µg/mL] | MIC (Bacillus subtilis) [µg/mL] | MIC (Staphylococcus aureus [5]) [µg/mL] | MIC (Staphylococcus aureus [6]) [µg/mL] | MIC (Micrococcus luteus) [µg/mL]
Cn1c(N)c(C(c2ccc(C(F)(F)F)cc2)c2c(O)c3ccc4ccccc4c3oc2=O)c(=O)n(C)c1=O (stereo unspecified) | inactive | 10 µg/mL | 10 µg/mL | > 150 | 9.37 (≈ 17.9 µM) | 2.34 (≈ 4.47 µM) | 9.37 (≈ 17.9 µM) | 18.8 (≈ 35.8 µM)
Cn1c(N)c(C(c2ccc(C#N)cc2)c2c(O)c3cc(F)ccc3oc2=O)c(=O)n(C)c1=O (stereo unspecified) |  |  |  | > 150 | 75 (≈ 167 µM) | 75 (≈ 167 µM) | 75 (≈ 167 µM) | > 150
COc1ccc(-c2nn(-c3ccccc3)cc2C(c2c(O)c3cc(C)ccc3oc2=O)c2c(N)n(C)c(=O)n(C)c2=O)cc1 (stereo unspecified) | inactive | inactive | 10 µg/mL | > 150 | 2.34 (≈ 3.96 µM) | > 150 | 4.68 (≈ 7.91 µM) | 2.34 (≈ 3.96 µM)
Cc1ccc(-c2nn(-c3ccccc3)cc2C(c2c(O)c3cc(F)ccc3oc2=O)c2c(N)n(C)c(=O)n(C)c2=O)cc1 (stereo unspecified) | inactive | inactive | 4 µg/mL | > 150 | 1.17 (≈ 2.02 µM) | > 150 | 2.34 (≈ 4.04 µM) | 0.58 (≈ 1 µM)
CCCC(c1c(O)c2cc(C)ccc2oc1=O)c1c(N)n(C)c(=O)n(C)c1=O (stereo unspecified) |  |  |  | > 150 | 18.8 (≈ 48.6 µM) | 75 (≈ 195 µM) | 75 (≈ 195 µM) | 75 (≈ 195 µM)
CCOc1cc(C(c2c(O)c3cc(C)ccc3oc2=O)c2c(N)n(C)c(=O)n(C)c2=O)ccc1O (stereo unspecified) | 20 µg/mL | 10 µg/mL | inactive | 9.37 (≈ 19.5 µM) | 9.37 (≈ 19.5 µM) | 9.37 (≈ 19.5 µM) | 75 (≈ 156 µM) | 9.37 (≈ 19.5 µM)
COc1cc(C(c2c(O)c3cc(F)ccc3oc2=O)c2c(N)n(C)c(=O)n(C)c2=O)cc(OC)c1O (stereo unspecified) |  |  |  | > 150 | > 150 | 37.5 (≈ 75.1 µM) | > 150 | 18.8 (≈ 37.5 µM)
Cc1ccc2oc(=O)c(C(c3ccc(C(C)C)cc3)c3c(N)n(C)c(=O)n(C)c3=O)c(O)c2c1 (stereo unspecified) |  |  |  | > 150 | 9.37 (≈ 20.3 µM) | 150 (≈ 325 µM) | > 150 | 75 (≈ 163 µM)
COc1cc(C(c2c(O)c3cc(F)ccc3oc2=O)c2c(N)n(C)c(=O)n(C)c2=O)ccc1O (stereo unspecified) | inactive | 40 µg/mL | inactive | > 150 | 9.37 (≈ 20 µM) | 37.5 (≈ 79.9 µM) | 75 (≈ 160 µM) | 9.37 (≈ 20 µM)
Cn1c(N)c(C(c2cn(-c3ccccc3)nc2-c2ccc(Cl)cc2)c2c(O)c3cc(F)ccc3oc2=O)c(=O)n(C)c1=O (stereo unspecified) | inactive | inactive | 4 µg/mL | > 150 | 1.17 (≈ 1.95 µM) | > 150 | 1.17 (≈ 1.95 µM) | 0.58 (≈ 0.967 µM)
Cc1ccc2oc(=O)c(C(c3ccc(F)cc3)c3c(N)n(C)c(=O)n(C)c3=O)c(O)c2c1 (stereo unspecified) |  |  |  | > 150 | 37.5 (≈ 85.7 µM) | 150 (≈ 343 µM) | > 150 | > 150
COc1ccc(-c2nn(-c3ccccc3)cc2C(c2c(O)c3cc(F)ccc3oc2=O)c2c(N)n(C)c(=O)n(C)c2=O)cc1 (stereo unspecified) | inactive | inactive | 10 µg/mL | > 150 | 2.34 (≈ 3.93 µM) | > 150 | 4.68 (≈ 7.86 µM) | 2.34 (≈ 3.93 µM)
Cn1c(N)c(C(c2cn(-c3ccccc3)nc2-c2ccccc2)c2c(O)c3cc(F)ccc3oc2=O)c(=O)n(C)c1=O (stereo unspecified) | inactive | 4 µg/mL | 10 µg/mL | > 150 | 4.68 (≈ 8.27 µM) | 1.17 (≈ 2.07 µM) | 2.34 (≈ 4.14 µM) | 2.34 (≈ 4.14 µM)
Cc1ccc2oc(=O)c(C(c3ccc(C#N)cc3)c3c(N)n(C)c(=O)n(C)c3=O)c(O)c2c1 (stereo unspecified) |  |  |  | > 150 | > 150 | 150 (≈ 337 µM) | > 150 | > 150
COc1ccc(C(c2c(O)c3cc(C)ccc3oc2=O)c2c(N)n(C)c(=O)n(C)c2=O)cc1 (stereo unspecified) |  |  |  | > 150 | 75 (≈ 167 µM) | 75 (≈ 167 µM) | > 150 | 75 (≈ 167 µM)
Cc1ccc2oc(=O)c(C(c3cn(-c4ccccc4)nc3-c3ccccc3)c3c(N)n(C)c(=O)n(C)c3=O)c(O)c2c1 (stereo unspecified) | inactive | inactive | 10 µg/mL | > 150 | 2.34 (≈ 4.17 µM) | > 150 | 4.68 (≈ 8.33 µM) | 2.34 (≈ 4.17 µM)
COc1ccc(C(c2c(O)c3ccc4ccccc4c3oc2=O)c2c(N)n(C)c(=O)n(C)c2=O)cc1OC (stereo unspecified) |  |  |  | > 150 | 18.8 (≈ 36.4 µM) | 9.37 (≈ 18.2 µM) | > 150 | > 150
Cn1c(N)c(C(c2cn(-c3ccccc3)nc2-c2ccc([N+](=O)[O-])cc2)c2c(O)c3cc(F)ccc3oc2=O)c(=O)n(C)c1=O (stereo unspecified) | inactive | inactive | 10 µg/mL | > 150 | 2.34 (≈ 3.83 µM) | > 150 | 4.68 (≈ 7.67 µM) | 2.34 (≈ 3.83 µM)
Cc1cc(O)c(C(c2ccc(C(F)(F)F)cc2)c2c(N)n(C)c(=O)n(C)c2=O)c(=O)o1 (stereo unspecified) |  |  |  | > 150 | 150 (≈ 343 µM) | > 150 | > 150 | > 150
Cc1ccc2oc(=O)c(C(c3ccc(C(F)(F)F)cc3)c3c(N)n(C)c(=O)n(C)c3=O)c(O)c2c1 (stereo unspecified) | 20 µg/mL | 20 µg/mL | inactive | 9.37 (≈ 19.2 µM) | 9.37 (≈ 19.2 µM) | 18.8 (≈ 38.5 µM) | > 150 | 18.8 (≈ 38.5 µM)
O=C(O)c1cn(C2CC2)c2cc(N3CCNCC3)c(F)cc2c1=O [CIPROFLOXACIN] | 4 µg/mL | 4 µg/mL | 4 µg/mL | 0.58 (≈ 1.75 µM) | 0.58 (≈ 1.75 µM) | 0.58 (≈ 1.75 µM) | 0.58 (≈ 1.75 µM) | 0.58 (≈ 1.75 µM)
Cn1c(N)c(C(c2ccc(C#N)cc2)c2c(O)c3ccc4ccccc4c3oc2=O)c(=O)n(C)c1=O (stereo unspecified) |  |  |  | > 150 | 37.5 (≈ 78 µM) | 37.5 (≈ 78 µM) | > 150 | 150 (≈ 312 µM)
Cc1cc(O)c(C(c2c(N)n(C)c(=O)n(C)c2=O)C2CCCCC2)c(=O)o1 (stereo unspecified) |  |  |  | > 150 | 150 (≈ 400 µM) | > 150 | > 150 | > 150
